Source: patent publication US20190240184A1, “PHARMACEUTICAL APPLICATIONS FOR (S)-N[…] SALTS THEREOF” (NATIONAL UNIVERSITY CORPORATION CHIBA UNIVERSITY, priority 2016, published 2019)

What was measured:
[1] = Plasma concentration of (S)-norketamine after peroral administration of (S)-norketamine derivative; assay type: in vivo; conditions: mice; 30 mg/kg perorally; 15 min to 8 h
Description: The pharmacokinetic profile of an (S)-norketamine derivative was investigated through measurement of the blood concentration of (S)-norketamine after administration thereof.
The obtained blood plasma was placed into a polypropylene microtube and stored in a freezer at −80° C.
The plasma concentration of (S)-norketamine was measured by the method described below.
STD (standard) solution (10 μL) was added to mouse plasma (20 μL) as a calibration curve sample. A mixture of acetonitrile/water (1:1, v/v) was added to a sample, a blank sample, and a QC (quality control) sample.
Agitation was performed for 10 seconds, and I.S. (internal standard) solution (Norketamine-D4: 10 ng/mL) (100 μL) was added. A mixture of acetonitrile and methanol (=9:1) was added to the blank sample.
Agitation was performed for 30 seconds, followed by centrifugation at room temperature and 16,000×g for three minutes. The supernatant (80 μL) was transferred to a new microtube, and 0.001 mol/L ammonium hydrogen carbonate (100 μL) was added to the microtube.
Agitation was performed for 10 seconds, followed by centrifugation at room temperature and 16,000×g for two minutes.
The (S)-norketamine concentration was measured through HPLC.
The measurement conditions are as follows.

[2] = system: normal mice; experiment: Prepulse inhibition test (side effects)
[3] = system: LPS-treated mice; experiment: Tail suspension test (TST) in LPS-induced inflammatory model of depression; conditions: for immobility time in TST: TST 3 h after
[4] = system: normal mice; experiment: Hyperlocomotion test (side effects); conditions: for time after administration at which enhanced amount of locomotion returned to a normal value: ketamine 10 mg/kg, norketamine 20 mg/kg, (S)-ketamine 10 mg/kg
[5] = system: NMDA receptor; conditions: Non-Patent Document 12; cited from earlier work
[6] = system: LPS-treated mice; experiment: Forced swimming test (FST) in LPS-induced inflammatory model of depression; conditions: for immobility time in FST: FST 5 h after
[7] = system: normal mice; experiment: Conditioned place preference test (CPP) (side effects); conditions: 20 mg/kg; vs saline
[8] = system: social defeat stress mice; experiment: Forced swimming test (FST) in social defeat stress model of depression; assay type: in vivo; conditions: 10 mg/kg intraperitoneally; for immobility time in FST: single administration
Description: (§1) The TST was performed as follows. […] The FST was performed as follows. […] The LMT was performed as follows. […] The SPT was performed as follows.

[9] = system: social defeat stress mice; experiment: Tail suspension test (TST) in social defeat stress model of depression; assay type: in vivo; conditions: 10 mg/kg intraperitoneally; for immobility time in TST: single administration
Description: as §1

[10] = system: social defeat stress mice; experiment: 1% sucrose preference test (SPT) in social defeat stress model of depression; conditions: 10 mg/kg intraperitoneally, seven days after administration
[11] = system: social defeat stress mice; experiment: Golgi staining, spine density in brain regions of social defeat stress mice; assay type: in vivo; conditions: 10 mg/kg intraperitoneally, eight days after administration
[12] = 10 mg/kg each, intraperitoneally
[13] = 10 mg/kg intraperitoneally, vs LPS-treated mice administered saline
[14] = 5, 10, or 20 mg/kg intraperitoneally 23 h after LPS

| Structure (SMILES) | immobility time in TST [3, 13] | time after administration at which enhanced amount of locomotion returned to a normal value [4] [min] | immobility time in FST [6, 13] | CPP score (conditioned place preference, drug dependence) [7] | immobility time in FST [8] | immobility time in TST [9] | sucrose consumption preference in SPT [10] | spine density in frontal cortex (prelimbic region), hippocampus CA3 region and hippocampal dentate gyrus [11] | spine density in nucleus accumbens (core region and shell region) [11] | other results |
| --- | --- | --- | --- | --- | --- | --- | --- | --- | --- | --- |
| Cc1oc(=O)oc1COC(=O)N[C@]1(c2ccccc2Cl)CCCCC1=O [Compound 1, (5-methyl-2-oxo-1,3-dioxol-4-yl)methyl-(S)-(1-(2-chlorophenyl)-2-oxocyclohexyl) carbamate] |  |  |  |  |  |  |  |  |  | decrease of blood concentration compared with (S)-norketamine derivative (2) [1]: decreased more slowly |
| NC1(c2ccccc2Cl)CCCCC1=O (centres unmarked) [norketamine] | significantly reduced immobility time | 20 | significantly reduced immobility time |  |  |  |  |  |  | prepulse inhibition deficit ([2]; 5 mg/kg or 10 mg/kg): did not induce prepulse inhibition deficit; prepulse inhibition deficit ([2]; 20 mg/kg, prepulse stimulation at 81 dB): significantly induced prepulse inhibition deficit; antidepressant effect in TST compared with ketamine [3, 12]: significantly stronger compared to ketamine; immobility time in TST [3, 14]: dose-dependently reduced immobility time; amount of locomotion (hyperlocomotion effect) ([4]; 5 mg/kg or 10 mg/kg): did not affect the amount of locomotion; amount of locomotion compared with ketamine (10 mg/kg) ([4]; 20 mg/kg, 10 minutes after administration): significantly lower than that in the mice administered ketamine (10 mg/kg); amount of locomotion (hyperlocomotion effect) ([4]; 20 mg/kg, 10 minutes after administration, vs normal mice administered saline): significant increase in amount of locomotion; affinity for an NMDA receptor, factor lower than ketamine [5]: about 6.8 fold; antidepressant effect in FST compared with ketamine [6, 12]: significantly stronger compared to ketamine; immobility time in FST [6, 14]: dose-dependently reduced immobility time |
| CN[C@]1(c2ccccc2Cl)CCCCC1=O [(S)-ketamine] |  | 30 |  | significantly increase the CPP score |  |  |  |  |  | prepulse inhibition deficit ([2]; 10 mg/kg): induced prepulse inhibition deficit; amount of locomotion (hyperlocomotion effect) ([4]; 10 mg/kg, 10 minutes and 20 minutes after administration, vs normal mice administered saline): significant increase in amount of locomotion |
| CNC1(c2ccccc2Cl)CCCCC1=O (racemic) [ketamine] | significantly reduced immobility time | 20 | significantly reduced immobility time |  |  |  |  |  |  | prepulse inhibition deficit ([2]; 10 mg/kg, prepulse stimulation at 77 dB or 81 dB): induced prepulse inhibition deficit; amount of locomotion (hyperlocomotion effect) ([4]; 10 mg/kg, 10 minutes after administration, vs normal mice administered saline): significant increase in amount of locomotion |
| N[C@@]1(c2ccccc2Cl)CCCCC1=O [(R)-norketamine] |  |  |  |  | did not exhibit an antidepressant effect | did not exhibit an antidepressant effect | did not restore it | did not exhibit the effect of increasing the spine density | not affected |  |
| N[C@]1(c2ccccc2Cl)CCCCC1=O [(S)-norketamine] |  |  |  | did not increase the CPP score | significantly reduced immobility time | significantly reduced immobility time | significantly restored the sucrose consumption preference | significantly increased the spine density | not affected | antidepressant effect in FST compared with (R)-norketamine [8]: significantly higher antidepressant effect than (R)-norketamine; antidepressant effect in TST compared with (R)-norketamine [9]: significantly higher antidepressant effect than (R)-norketamine; prepulse inhibition deficit ([2]; 5, 10, or 20 mg/kg): did not induce prepulse inhibition deficit; amount of locomotion (hyperlocomotion effect) ([4]; 5, 10, or 20 mg/kg): did not affect the amount of locomotion |
